Molecular target: T1, Human complement C1s enzyme (Homo sapiens, UniProt P09871)
T1 construct: purified from human serum, Complement Technology, Inc; purchased Complement Technology, Inc; host or cells: human serum (plasma-derived native protein)
T1 sequence (P09871 438-688 limits assumed): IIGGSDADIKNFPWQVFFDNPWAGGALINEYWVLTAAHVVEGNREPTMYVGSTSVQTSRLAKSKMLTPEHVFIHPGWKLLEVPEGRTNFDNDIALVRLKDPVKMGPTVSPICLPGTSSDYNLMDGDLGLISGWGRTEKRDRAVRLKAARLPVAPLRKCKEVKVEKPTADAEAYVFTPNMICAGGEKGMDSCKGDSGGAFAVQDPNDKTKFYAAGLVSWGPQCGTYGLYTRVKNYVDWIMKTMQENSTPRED
T1 sequence (P09871 16-437 partner limits assumed): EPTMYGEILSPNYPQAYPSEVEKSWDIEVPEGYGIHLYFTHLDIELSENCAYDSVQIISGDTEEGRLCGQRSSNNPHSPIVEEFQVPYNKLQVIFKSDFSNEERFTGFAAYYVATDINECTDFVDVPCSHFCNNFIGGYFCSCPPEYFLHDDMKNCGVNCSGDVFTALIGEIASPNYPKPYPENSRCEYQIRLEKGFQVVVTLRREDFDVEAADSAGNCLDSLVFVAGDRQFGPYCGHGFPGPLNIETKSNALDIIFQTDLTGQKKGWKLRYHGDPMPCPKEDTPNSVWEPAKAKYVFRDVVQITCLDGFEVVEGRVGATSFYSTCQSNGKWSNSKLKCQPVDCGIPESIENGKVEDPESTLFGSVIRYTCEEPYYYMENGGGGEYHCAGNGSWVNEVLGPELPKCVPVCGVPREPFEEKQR
Test: Human C1s enzyme assay
Type: biochemical
Details: human complement C1s enzyme 1.16 nM, substrate Z-L-Lys-SBzl, A405; read-out: IC50 (Stars)
Description: The […] values of the compounds of Table 1 were determined with the human C1s enzyme assay described below. Other standard complement assays are also available.
Human complement C1s enzyme (purified from human serum, Complement Technology, Inc.) at 1.16 nM final concentration was incubated with test compound at various concentrations for 5 min at room temperature in 50 mM Tris, 1 M NaCl, pH 7.5. A synthetic substrate Z-L-Lys-SBzl and DTNB (Ellman's reagent) were added to final concentrations of 100 μM each. Absorbance at 405 nm (A405) was recorded at 30 second intervals for […] using a microplate spectrophotometer. IC values were calculated by nonlinear regression of complement C1s reaction rates as a function of test compound concentration.
[…]; ND indicates a compound for which the IC50 value is not determined.

SMILES | IC50 [µM]
COc1ccc(CCCNc2cnc(-c3ccccc3)n(CC(=O)NCc3cc4cnccc4[nH]3)c2=O)cc1 [Compound 45, N-((1H-pyrrolo[3,2-c]pyridin-2-yl)methyl)-2-(5-((3-(4-methoxyphenyl)propyl)amino)-6-oxo-2-phenylpyrimidin-1(6H)-yl)acetamide] | < 0.1
O=C(Cn1c(-c2ccccc2)ncc(NCCCc2ccc(F)cc2)c1=O)NCc1cc2cnccc2[nH]1 [Compound 46, N-((1H-pyrrolo[3,2-c]pyridin-2-yl)methyl)-2-(5-((3-(4-fluorophenyl)propyl)amino)-6-oxo-2-phenylpyrimidin-1(6H)-yl)acetamide] | < 0.1
C[C@H](NC(=O)Cn1c(-c2ccccc2)cnc(NCCCc2ccccc2)c1=O)c1cc2cnccc2[nH]1 [Compound 47, (S)-N-(1-(1H-pyrrolo[3,2-c]pyridin-2-yl)ethyl)-2-(2-oxo-6-phenyl-3-((3-phenylpropyl)-amino)pyrazin-1(2H)-yl)-acetamide] | > 1
N#Cc1ccc(CCCNc2cnc(-c3ccccc3)n(CC(=O)NCc3cc4cnccc4[nH]3)c2=O)cc1 [Compound 48, N-((1H-pyrrolo[3,2-c]pyridin-2-yl)methyl)-2-(5-((3-(4-cyanophenyl)propyl)amino)-6-oxo-2-phenylpyrimidin-1(6H)-yl)acetamide] | < 0.1
O=C(Cn1c(-c2ccccc2)ncc(NC(=O)C2CCC(Oc3ccccc3)CC2)c1=O)NCc1cc2cnccc2[nH]1 (stereo not drawn) [Compound 49, N-[6-oxo-1-[2-oxo-2-(1H-pyrrolo[3,2-c]pyridin-2-ylmethylamino)ethyl]-2-phenyl-pyrimidin-5-yl]-4-phenoxy-cyclohexanecarboxamide] | < 0.1
O=C(Cn1c(-c2ccccc2)ncc(NC(=O)c2ccc(Oc3ccc(C(F)(F)F)cc3)cc2)c1=O)NCc1cc2cnccc2[nH]1 [Compound 50, N-(1-(2-(((1H-pyrrolo[3,2-c]pyridin-2-yl)methyl)amino)-2-oxoethyl)-6-oxo-2-phenyl-1,6-dihydropyrimidin-5-yl)-4-(4-(trifluoromethyl)phenoxy)-benzamide] | < 0.1
O=C(Cn1c(-c2ccccc2)ncc(NC(=O)c2ccc(Oc3ccc(Br)cc3)cc2)c1=O)NCc1cc2cnccc2[nH]1 [Compound 51, N-(1-(2-(((1H-pyrrolo[3,2-c]pyridin-2-yl)methyl)amino)-2-oxoethyl)-6-oxo-2-phenyl-1,6-dihydropyrimidin-5-yl)-4-(4-bromophenoxy)benzamide] | < 0.1
O=C(Cn1c(-c2ccccc2)ncc(NC(=O)c2ccc(Oc3ccc(F)cc3)cc2)c1=O)NCc1cc2cnccc2[nH]1 [Compound 52, N-(1-(2-(((1H-pyrrolo[3,2-c]pyridin-2-yl)methyl)amino)-2-oxoethyl)-6-oxo-2-phenyl-1,6-dihydropyrimidin-5-yl)-4-(4-fluorophenoxy)benzamide] | < 0.1
O=C(Cn1c(-c2ccccc2)ncc(NC(=O)c2ccc(Oc3cccnc3)cc2)c1=O)NCc1cc2cnccc2[nH]1 [Compound 53, N-(1-(2-(((1H-pyrrolo[3,2-c]pyridin-2-yl)methyl)amino)-2-oxoethyl)-6-oxo-2-phenyl-1,6-dihydropyrimidin-5-yl)-4-(pyridin-3-yloxy)benzamide] | < 0.1
O=C(Cn1c(-c2ccccc2)ncc(NC(=O)c2ccc(Oc3ccc(F)cc3F)cc2)c1=O)NCc1cc2cnccc2[nH]1 [Compound 55, N-(1-(2-(((1H-pyrrolo[3,2-c]pyridin-2-yl)methyl)amino)-2-oxoethyl)-6-oxo-2-phenyl-1,6-dihydropyrimidin-5-yl)-4-(2,4-difluorophenoxy)benzamide] | < 0.1
O=C(Cn1c(-c2ccccc2)ncc(NC(=O)c2ccc(-c3cccs3)cc2)c1=O)NCc1cc2cnccc2[nH]1 [Compound 56, N-(1-(2-(((1H-pyrrolo[3,2-c]pyridin-2-yl)methyl)amino)-2-oxoethyl)-6-oxo-2-phenyl-1,6-dihydropyrimidin-5-yl)-4-(thiophen-2-yl)benzamide] | < 0.1
O=C(Cn1c(-c2ccccc2)ncc(NC(=O)c2ccc(Oc3ccccc3)o2)c1=O)NCc1cc2cnccc2[nH]1 [Compound 57, N-(1-(2-(((1H-pyrrolo[3,2-c]pyridin-2-yl)methyl)amino)-2-oxoethyl)-6-oxo-2-phenyl-1,6-dihydropyrimidin-5-yl)-5-phen-oxyfuran-2-carboxamide] | < 0.1
O=C(Cn1c(-c2ccccc2)ncc(NC(=O)c2cccc(Oc3ccccc3)c2)c1=O)NCc1cc2cnccc2[nH]1 [Compound 58, N-(1-(2-(((1H-pyrrolo[3,2-c]pyridin-2-yl)methyl)amino)-2-oxoethyl)-6-oxo-2-phenyl-1,6-dihydropyrimidin-5-yl)-3-phen-oxybenzamide] | < 0.1
O=C(Cn1c(-c2ccccc2)ncc(NC(=O)c2ccc(-n3cccc3)cc2)c1=O)NCc1cc2cnccc2[nH]1 [Compound 59, N-(1-(2-(((1H-pyrrolo[3,2-c]pyridin-2-yl)methyl)amino)-2-oxoethyl)-6-oxo-2-phenyl-1,6-dihydropyrimidin-5-yl)-4-(1H-pyrrol-1-yl)benzamide] | < 0.1
O=C(Cn1c(-c2ccccc2)cnc(NCc2ccc(-c3ccccc3)cc2)c1=O)NCc1cc2cnccc2[nH]1 [Compound 60, N-((1H-pyrrolo[3,2-c]pyridin-2-yl)methyl)-2-(3-(([1,1′-biphenyl]-4-ylmethyl)amino)-2-oxo-6-phenylpyrazin-1(2H)-yl)acetamide] | < 0.1
C[C@@H](Nc1cnc(-c2ccccc2)n(CC(=O)NCc2cc3cnccc3[nH]2)c1=O)c1ccc(Oc2ccccc2)cc1 [Compound 61, (R)—N-((1H-pyrrolo[3,2-c]pyridine-2-yl)methyl)-2-(6-oxo-5-((1-(4-phenoxyphenyl)ethyl)amino)-2-phenylpyrimidin-1(6H)-yl)acetamide] | < 0.1
C[C@H](Nc1cnc(-c2ccccc2)n(CC(=O)NCc2cc3cnccc3[nH]2)c1=O)c1ccc(Oc2ccccc2)cc1 [Compound 62, (S)-N-((1H-pyrrolo[3,2-c]pyr-idin-2-yl)methyl)-2-(6-oxo-5-((1-(4-phenoxyphenyl)ethyl)-amino)-2-phenylpyrimidin-1(6H)-yl)acetamide] | < 0.1
O=C(Cn1c(-c2ccccc2)cnc(NCc2ccc(Oc3ccccc3)cc2)c1=O)NCc1cc2cnccc2[nH]1 [Compound 63, N-((1H-pyrrolo[3,2-c]pyridine-2-yl)methyl)-2-(2-oxo-3-((4-phenoxybenzyl)amino)-6-phenylpyrazin-1(2H)-yl)acetamide] | < 0.1
O=C(Cn1c(-c2ccccc2)ncc(NCCCc2ccc3sc4ccccc4c3c2)c1=O)NCc1cc2cnccc2[nH]1 [Compound 64, N-((1H-pyrrolo[3,2-c]pyridin-2-yl)methyl)-2-(5-((3-(dibenzo [b,d]thiophen-2-yl)propyl)-amino)-6-oxo-2-phenylpyrimi-din-1(6H)-yl)acetamide] | < 0.1
O=C(Cn1c(-c2ccccc2)ncc(N2CC3CCC2C3)c1=O)NCc1cc2cnccc2[nH]1 (stereo not drawn) [Compound 65, N-((1H-pyrrolo[3,2-c]pyridin-2-yl)methyl)-2-(5-(2-azabicyclo [2.2.1]heptan-2-yl)-6-oxo-2-phenylpyrimidin-1(6H)-yl)-acetamide] | 0.1 to 1
NS(=O)(=O)COc1ccc(-c2ncc(NCCCc3ccccc3)c(=O)n2CC(=O)NCc2cc3cnccc3[nH]2)cc1 [Compound 67, N-((1H-pyrrolo[3,2-c]pyridine-2-yl)methyl)-2-(6-oxo-5-((3-phenylpropyl)amino)-2-(4-(sulfamoylmethoxy)phenyl)pyrimidin-1(6H)-yl)acetamide] | < 0.1
CP(=O)(O)c1ccc(-c2ncc(NCCCc3ccccc3)c(=O)n2CC(=O)NCc2cc3cnccc3[nH]2)cc1 [Compound 68, (4-(1-(2-(((1H-pyrrolo[3,2-c]pyridine-2-yl)methyl)amino)-2-oxoethyl)-6-oxo-5-((3-phenylpropyl)amino)-1,6-dihydropyrimidin-2-yl)phenyl)(methyl)phosphinic acid] | < 0.1
CS(=O)(=O)c1ccc(-c2ncc(NCCCc3ccccc3)c(=O)n2CC(=O)NCc2cc3cnccc3[nH]2)cc1 [Compound 69, N-((1H-pyrrolo[3,2-c]pyridine-2-yl)methyl)-2-(2-(4-(methylsulfonyl)phenyl)-6-oxo-5-((3-phenylpropyl)amino)pyrimidin-1(6H)-yl)acetamide] | < 0.1
O=C(Cn1c(-c2ccccc2)ncc(Br)c1=O)NCc1cc2cnccc2[nH]1 [Compound 71, N-((1H-pyrrolo[3,2-c]pyridin-2-yl)methyl)-2-(5-bromo-6-oxo-2-phenylpyrimidin-1(6H)-yl)acetamide] | 0.1 to 1

— US20260184707A1, “PHARMACEUTICAL COMPOUNDS FOR THE TREATMENT OF COMPLEMENT MEDIATED DISORDERS” (ALEXION PHARMACEUTICALS, INC., priority 2022, published 2026)
